Reference: US20070142367A1, “METHOD AND MEDICINE FOR TREATING GASTROINTESTINAL DISORDER INCLUDING FECAL INCONTINENCE” (priority 2003, published 2007)

How the values were obtained:
[1] = system: human having a gastrointestinal disorder that includes fecal incontinence; assay: Treatment of ambulatory patients having fecal incontinence with daily oral medicine (case examples); type: in vivo; settings: Example 3: person, sprain lumbar spine, 75 mg imipramine pamoate daily without stool softener, after several days
Source text: (§1) The patient takes TYLOX, oxycontin, neurotin, aspirin, and anti-coagulants.

human patient = assay: Side effects noted in patients under daily oral treatment (case examples); settings: Example 3: 75 mg imipramine pamoate daily without stool softener
Source text: as §1

For `CN(C)CCCN1c2ccccc2CCc2ccccc21.CN(C)CCCN1c2ccccc2CCc2ccccc21.O=C(O)c1cc2ccccc2c(Cc2c(O)c(C(=O)O)cc3ccccc23)c1O` [imipramine pamoate, 5-[3-(dimethylamino)propyl]-10,11-dihydro-5H-dibenzazepine 4,4-methlyenebis-(3-hydroxy-2-napthoate)], the “bladder and bowel functions as noted by patient” value [1] was “full control of bladder and bowel functions” and the side effects (human patient) was “develops constipation”.
